Experimental data taken from ChEMBL document CHEMBL1201862, “PubChem BioAssay data set” (2004).
Active and inactive are the calls of the source.

Experiments:
[1] = HepG2 cell cytotoxicity, dose response, cytotoxicity control for Shn3 inhibitor project, CellTiter-Glo, cherry-picked (AID 624134); format: functional, cell-based
[2] = Shn3 3'UTR reporter inhibitors, dose response, cell-based, Clone20 osteoblasts, firefly luciferase, cherry-picked (AID 624132); format: functional;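 further: firefly luciferase luminescence from reporter carrying the Shn3 3'UTR in osteoblasts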
[3] = HEK293 cell cytotoxicity, dose response, cytotoxicity control, plate reader, cherry-picked samples (AID 743446); format: functional, cell-based
[4] = LGR2 antagonists, dose response, cell-based, HEK293, CRE-luciferase reporter, cherry pick, set 2 (AID 743343); format: functional;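 further: transfected cells were stimulated with diluted bursicon conditioned medium after compound addition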
Jurkat = test: antigen receptor-induced NF-kB inhibitors, dose response, Jurkat, luciferase reporter, luminescence, B- and T-cell (AID 489004); format: functional, cell-based; details: Homo sapiens;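 further: NF-kB luciferase reporter Jurkat cells stimulated with PMA plus ionomycin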
[5] = target: Luciferin 4-monooxygenase (Photuris pensylvanica, UniProt Q27757); test: firefly luciferase enzyme inhibitors, dose response, counter-screen for HSF-1 reporter inhibitor project, biochemical, Cell Titer Glo, luminescence, cherry-picks (AID 588847)
[6] = HepG2 cell cytotoxicity, dose response, cytotoxicity control, plate reader, cherry-pick, antagonist series (AID 743416); format: functional, cell-based
[7] = MC4R antagonists, dose response, counter-screen for LGR2 antagonist project, cell-based, plate reader, cherry pick (AID 743444); format: functional;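 further: transfected HEK 293 cells stimulated with alpha-MSH peptide; potency of inhibitors of the alpha-MSH evoked signal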
Paired box protein Pax-8 = Paired box protein Pax-8 (Homo sapiens, UniProt Q06710); test: inhibitors of PAX8-driven TPO luciferase reporter, dose response, RMG-I cells, cherry-pick (AID 687027); format: functional, cell-based;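 further: luciferase reporter driven by Pax8 target thyroperoxidase promoter measured by SteadyGlo luminescence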
Protein skinhead-1 = target: T1, Protein skinhead-1 (Caenorhabditis elegans, UniProt P34707); format: functional
T1 sequence (P34707 whole entry): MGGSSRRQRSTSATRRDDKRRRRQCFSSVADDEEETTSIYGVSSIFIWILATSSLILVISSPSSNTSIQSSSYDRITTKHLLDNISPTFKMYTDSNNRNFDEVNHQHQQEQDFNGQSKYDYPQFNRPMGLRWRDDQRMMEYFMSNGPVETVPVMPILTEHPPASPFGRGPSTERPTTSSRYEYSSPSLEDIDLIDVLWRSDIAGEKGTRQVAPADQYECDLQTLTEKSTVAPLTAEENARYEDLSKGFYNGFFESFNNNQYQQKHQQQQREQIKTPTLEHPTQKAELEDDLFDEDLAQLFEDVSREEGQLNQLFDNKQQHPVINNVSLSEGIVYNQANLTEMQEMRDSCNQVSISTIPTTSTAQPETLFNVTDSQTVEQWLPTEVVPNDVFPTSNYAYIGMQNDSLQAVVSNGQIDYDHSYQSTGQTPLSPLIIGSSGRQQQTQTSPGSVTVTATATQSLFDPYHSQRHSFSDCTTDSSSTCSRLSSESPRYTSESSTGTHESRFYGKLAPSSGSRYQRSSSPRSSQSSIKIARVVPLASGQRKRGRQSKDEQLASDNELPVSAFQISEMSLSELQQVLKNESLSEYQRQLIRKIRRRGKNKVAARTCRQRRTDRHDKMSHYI

[8] = target: T2, Heat shock factor protein 1 (Mus musculus, UniProt P38532); test: inhibition of MG132-induced HSE-luciferase signal, confirmation, cell-based, NIH3T3, luminescence, dose retest (AID 2382); format: functional;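 further: NIH3T3 fibroblasts with HSF1-driven luciferase reporter stressed by proteasome inhibitor MG132; luminescence from HSF1-driven luciferase expression after 8 hours of MG132 stress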
T2 sequence (P38532 whole entry): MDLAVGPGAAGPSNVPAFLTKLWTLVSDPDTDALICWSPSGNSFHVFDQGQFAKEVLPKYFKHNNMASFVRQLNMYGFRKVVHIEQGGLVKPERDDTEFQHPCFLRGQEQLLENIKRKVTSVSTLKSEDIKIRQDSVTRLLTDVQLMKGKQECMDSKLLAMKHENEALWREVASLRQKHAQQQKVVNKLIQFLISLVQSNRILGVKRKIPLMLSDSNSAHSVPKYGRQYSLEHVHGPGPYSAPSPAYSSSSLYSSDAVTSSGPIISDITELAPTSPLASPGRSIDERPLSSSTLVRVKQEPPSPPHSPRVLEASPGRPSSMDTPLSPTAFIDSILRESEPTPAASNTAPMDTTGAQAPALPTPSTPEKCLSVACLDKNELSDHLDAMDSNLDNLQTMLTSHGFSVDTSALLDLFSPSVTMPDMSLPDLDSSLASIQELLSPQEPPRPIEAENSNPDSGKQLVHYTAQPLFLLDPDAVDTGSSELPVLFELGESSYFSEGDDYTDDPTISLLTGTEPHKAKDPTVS

[9] = control 3'UTR Renilla luciferase suppression, dose response, counter-screen for Shn3 inhibitor project, cell-based, Clone20-Shn3RL, cherry-picked (AID 624133); format: functional
[10] = cytotoxicity in HEK-293T NF-kB-Luc cells, dose response, cytotoxicity control for B/T-cell NF-kB inhibitor project, cell-based, uHTS hits (AID 489019); format: functional;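 further: IC50 reflects cytotoxicity as loss of cell viability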
[11] = target: T3, DNA repair protein RAD52 homolog (Homo sapiens, UniProt P43351); format: functional, biochemical
T3 sequence (P43351 whole entry): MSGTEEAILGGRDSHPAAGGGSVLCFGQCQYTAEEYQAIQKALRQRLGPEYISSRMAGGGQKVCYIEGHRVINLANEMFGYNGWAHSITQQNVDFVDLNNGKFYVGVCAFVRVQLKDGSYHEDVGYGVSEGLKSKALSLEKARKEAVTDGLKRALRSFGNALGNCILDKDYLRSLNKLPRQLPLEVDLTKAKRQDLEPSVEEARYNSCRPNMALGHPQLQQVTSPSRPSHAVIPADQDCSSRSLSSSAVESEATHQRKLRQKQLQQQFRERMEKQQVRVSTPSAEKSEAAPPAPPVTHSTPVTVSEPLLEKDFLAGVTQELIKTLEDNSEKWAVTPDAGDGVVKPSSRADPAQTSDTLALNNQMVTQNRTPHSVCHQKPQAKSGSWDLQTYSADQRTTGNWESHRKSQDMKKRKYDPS

[12] = target: Latent membrane protein 1 (Human herpesvirus 4 (strain B95-8), UniProt P03230); test: TES1-eGFP NF-kB reporter inhibition versus Tet-On dsRED, dose response, selectivity assay for LMP1 NF-kB inhibitor project, imaging, HEK293T, dual-color eGFP/dsRED, cherry-picks (AID 588398); format: functional, cell-based
DNA topoisomerase = DNA topoisomerase (Yersinia pestis, UniProt A0A2S9PM60); test: Y. pestis Topo-I inhibitors, cleavage product readout, dose response, biochemical, cherry-pick (AID 588525)
INS1 = test: beta cell apoptosis inhibitors, cytokine rescue, dose response, luminescence, retest (AID 449756); format: functional, cell-based; details: Rattus norvegicus;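 further: cell death triggered by IL-1 beta plus TNF-alpha plus IFN-gamma mixture; protective hits raise ATP signal compared with cytokine alone wells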
[13] = Luminescence Cell-Based Dose Retest to Confirm Inhibitors of Cancer Stem Cells. [Related pubchem assays (depositor defined):AID2717, AID2721]; format: functional; details: Homo sapiens
[14] = target: T4, Sentrin-specific protease 8 (Homo sapiens, UniProt Q96LD8); format: functional
T4 sequence (Q96LD8 whole entry): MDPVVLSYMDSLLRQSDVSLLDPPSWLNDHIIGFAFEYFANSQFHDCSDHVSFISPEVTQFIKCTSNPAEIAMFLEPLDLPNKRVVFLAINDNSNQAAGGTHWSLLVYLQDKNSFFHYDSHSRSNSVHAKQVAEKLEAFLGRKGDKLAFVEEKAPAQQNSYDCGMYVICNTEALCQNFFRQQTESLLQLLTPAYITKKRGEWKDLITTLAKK

[15] = target: Apoptotic protease-activating factor 1 (Homo sapiens, UniProt O14727); format: functional
[16] = target: T5, Microphthalmia-associated transcription factor (Homo sapiens, UniProt O75030); test: TRPM1 promoter luciferase signal decrease, dose response, MITF inhibitor project, cell-based, SK-MEL-5, cherry-picked, set 3 (AID 493073); format: functional
T5 sequence (O75030 whole entry): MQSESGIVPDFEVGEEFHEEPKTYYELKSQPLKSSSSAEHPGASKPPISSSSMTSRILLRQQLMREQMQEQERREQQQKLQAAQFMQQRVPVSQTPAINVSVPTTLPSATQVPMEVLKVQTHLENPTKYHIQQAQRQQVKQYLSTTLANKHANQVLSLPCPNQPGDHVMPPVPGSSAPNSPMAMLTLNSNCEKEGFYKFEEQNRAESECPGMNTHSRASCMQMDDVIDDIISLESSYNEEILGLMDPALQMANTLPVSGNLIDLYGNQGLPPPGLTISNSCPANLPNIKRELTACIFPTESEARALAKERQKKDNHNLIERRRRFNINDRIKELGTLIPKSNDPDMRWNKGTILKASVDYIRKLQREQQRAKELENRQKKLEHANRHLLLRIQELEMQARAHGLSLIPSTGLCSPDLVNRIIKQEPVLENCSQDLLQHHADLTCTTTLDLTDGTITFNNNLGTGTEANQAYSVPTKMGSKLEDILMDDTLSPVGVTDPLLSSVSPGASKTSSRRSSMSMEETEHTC

Caspase-6 = target: T6, Caspase-6 (Homo sapiens, UniProt P55212); test: human caspase-6 inhibitors, dose response, biochemical, VEID-R110 fluorescence, cherry-pick (AID 720632)
T6 sequence (P55212 whole entry): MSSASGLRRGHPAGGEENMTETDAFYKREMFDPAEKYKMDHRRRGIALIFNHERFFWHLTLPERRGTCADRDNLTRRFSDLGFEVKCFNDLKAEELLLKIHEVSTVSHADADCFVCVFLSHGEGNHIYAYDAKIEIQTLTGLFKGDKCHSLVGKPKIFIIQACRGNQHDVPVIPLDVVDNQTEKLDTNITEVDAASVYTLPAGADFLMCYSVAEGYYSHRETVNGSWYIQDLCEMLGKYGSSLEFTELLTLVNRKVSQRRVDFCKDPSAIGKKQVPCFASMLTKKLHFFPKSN

[17] = target: T4, Sentrin-specific protease 8; format: functional; remark: listed apart in the source
Caspase-7 = Caspase-7 (Homo sapiens, UniProt P55210); test: human caspase-7 inhibitors, dose response, selectivity assay for caspase-6 inhibitor project, biochemical, DEVD-R110 fluorescence, cherry-pick (AID 743295)
Caspase-9 = Caspase-9 (Homo sapiens, UniProt P55211); test: caspase-9 enzyme inhibition, dose response, selectivity assay for caspase-6 inhibitor project, biochemical, fluorescence, plate reader, cherry-picked samples (AID 743293)
Caspase-8 = Caspase-8 (Homo sapiens, UniProt Q14790); test: caspase-8 inhibition counter-screen, dose response, selectivity assay for caspase-6 inhibitor project, biochemical, Z-IETD-R110 fluorescence, cherry-picked samples (AID 743294)
Sequence of Caspase-8 (Q14790 217-374 limits assumed): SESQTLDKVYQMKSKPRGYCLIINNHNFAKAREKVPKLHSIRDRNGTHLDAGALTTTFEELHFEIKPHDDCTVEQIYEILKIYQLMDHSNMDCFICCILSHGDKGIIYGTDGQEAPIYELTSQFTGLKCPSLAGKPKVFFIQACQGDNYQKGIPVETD
Sequence of Caspase-8 (Q14790 385-479 limits assumed): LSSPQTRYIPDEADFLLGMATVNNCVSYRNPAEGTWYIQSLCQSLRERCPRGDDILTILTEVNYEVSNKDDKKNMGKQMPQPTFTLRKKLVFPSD

Sequence of DNA topoisomerase (A0A2S9PM60 whole entry): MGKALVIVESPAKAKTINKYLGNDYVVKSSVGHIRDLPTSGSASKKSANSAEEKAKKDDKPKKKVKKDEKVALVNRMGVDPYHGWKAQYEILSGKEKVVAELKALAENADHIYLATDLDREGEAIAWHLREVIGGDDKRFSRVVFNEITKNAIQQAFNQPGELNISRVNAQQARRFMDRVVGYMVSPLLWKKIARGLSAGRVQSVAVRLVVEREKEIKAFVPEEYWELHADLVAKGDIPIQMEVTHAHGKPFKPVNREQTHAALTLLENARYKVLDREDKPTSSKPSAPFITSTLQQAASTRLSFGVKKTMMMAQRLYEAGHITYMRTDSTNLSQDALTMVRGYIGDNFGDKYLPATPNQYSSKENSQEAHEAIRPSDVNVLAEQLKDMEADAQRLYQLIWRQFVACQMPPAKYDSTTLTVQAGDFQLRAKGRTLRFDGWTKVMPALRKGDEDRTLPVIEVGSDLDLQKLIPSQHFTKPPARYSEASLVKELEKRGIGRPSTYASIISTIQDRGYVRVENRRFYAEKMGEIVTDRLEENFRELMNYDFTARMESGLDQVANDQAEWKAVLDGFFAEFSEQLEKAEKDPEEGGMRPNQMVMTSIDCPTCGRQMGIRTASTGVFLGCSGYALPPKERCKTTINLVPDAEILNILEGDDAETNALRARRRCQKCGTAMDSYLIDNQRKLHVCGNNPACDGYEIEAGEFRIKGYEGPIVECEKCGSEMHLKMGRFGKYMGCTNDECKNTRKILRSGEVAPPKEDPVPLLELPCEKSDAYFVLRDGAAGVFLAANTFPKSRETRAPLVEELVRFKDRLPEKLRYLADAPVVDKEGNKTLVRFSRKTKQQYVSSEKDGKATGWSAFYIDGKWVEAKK
Sequence of Latent membrane protein 1 (P03230 whole entry): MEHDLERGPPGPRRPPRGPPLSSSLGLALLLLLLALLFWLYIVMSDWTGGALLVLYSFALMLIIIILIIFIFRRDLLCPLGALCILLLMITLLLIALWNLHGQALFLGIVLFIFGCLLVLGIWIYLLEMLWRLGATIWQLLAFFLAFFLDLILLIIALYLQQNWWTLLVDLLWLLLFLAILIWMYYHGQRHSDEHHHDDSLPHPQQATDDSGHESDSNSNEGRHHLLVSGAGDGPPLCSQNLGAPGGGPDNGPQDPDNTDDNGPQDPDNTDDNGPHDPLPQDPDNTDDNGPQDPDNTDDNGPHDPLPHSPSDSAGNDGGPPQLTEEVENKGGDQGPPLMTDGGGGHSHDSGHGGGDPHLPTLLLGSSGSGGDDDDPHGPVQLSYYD
Sequence of Caspase-9 (P55211 1-315 limits assumed): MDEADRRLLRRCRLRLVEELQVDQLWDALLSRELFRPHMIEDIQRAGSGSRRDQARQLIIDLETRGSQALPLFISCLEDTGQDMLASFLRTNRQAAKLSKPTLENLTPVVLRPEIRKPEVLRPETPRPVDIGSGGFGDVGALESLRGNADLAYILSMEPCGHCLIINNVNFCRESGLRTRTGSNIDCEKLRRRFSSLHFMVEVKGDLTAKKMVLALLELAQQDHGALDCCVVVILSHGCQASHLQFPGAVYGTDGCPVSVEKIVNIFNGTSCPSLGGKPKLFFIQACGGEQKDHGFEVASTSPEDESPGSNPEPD
Sequence of Caspase-9 (P55211 331-416 limits assumed): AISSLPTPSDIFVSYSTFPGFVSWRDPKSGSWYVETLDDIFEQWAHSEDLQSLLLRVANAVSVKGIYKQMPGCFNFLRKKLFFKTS
Sequence of Caspase-7 (P55210 24-198 limits assumed): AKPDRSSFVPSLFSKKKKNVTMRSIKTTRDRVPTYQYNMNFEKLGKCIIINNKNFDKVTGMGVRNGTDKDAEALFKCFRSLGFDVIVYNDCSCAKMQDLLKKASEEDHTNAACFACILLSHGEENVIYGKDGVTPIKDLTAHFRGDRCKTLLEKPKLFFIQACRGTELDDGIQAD
Sequence of Caspase-7 (P55210 207-303 limits assumed): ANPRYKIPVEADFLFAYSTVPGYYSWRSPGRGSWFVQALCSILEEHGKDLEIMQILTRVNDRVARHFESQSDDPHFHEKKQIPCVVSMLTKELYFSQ
Sequence of Luciferin 4-monooxygenase (Q27757 whole entry): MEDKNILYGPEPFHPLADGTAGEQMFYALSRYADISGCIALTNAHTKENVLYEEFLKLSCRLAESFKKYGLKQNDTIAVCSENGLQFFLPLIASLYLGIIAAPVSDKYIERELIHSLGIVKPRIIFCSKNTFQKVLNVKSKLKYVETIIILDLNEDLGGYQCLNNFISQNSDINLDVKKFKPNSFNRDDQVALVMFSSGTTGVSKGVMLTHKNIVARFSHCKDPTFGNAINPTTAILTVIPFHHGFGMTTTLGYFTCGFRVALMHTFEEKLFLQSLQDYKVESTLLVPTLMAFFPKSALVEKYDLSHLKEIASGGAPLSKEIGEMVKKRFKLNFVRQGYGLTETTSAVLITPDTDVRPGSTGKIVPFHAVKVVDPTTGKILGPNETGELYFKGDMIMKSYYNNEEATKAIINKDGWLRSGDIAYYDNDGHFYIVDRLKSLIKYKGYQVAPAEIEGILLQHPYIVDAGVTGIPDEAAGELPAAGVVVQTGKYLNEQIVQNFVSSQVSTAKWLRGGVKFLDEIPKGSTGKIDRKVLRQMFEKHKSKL
Sequence of Paired box protein Pax-8 (Q06710 whole entry): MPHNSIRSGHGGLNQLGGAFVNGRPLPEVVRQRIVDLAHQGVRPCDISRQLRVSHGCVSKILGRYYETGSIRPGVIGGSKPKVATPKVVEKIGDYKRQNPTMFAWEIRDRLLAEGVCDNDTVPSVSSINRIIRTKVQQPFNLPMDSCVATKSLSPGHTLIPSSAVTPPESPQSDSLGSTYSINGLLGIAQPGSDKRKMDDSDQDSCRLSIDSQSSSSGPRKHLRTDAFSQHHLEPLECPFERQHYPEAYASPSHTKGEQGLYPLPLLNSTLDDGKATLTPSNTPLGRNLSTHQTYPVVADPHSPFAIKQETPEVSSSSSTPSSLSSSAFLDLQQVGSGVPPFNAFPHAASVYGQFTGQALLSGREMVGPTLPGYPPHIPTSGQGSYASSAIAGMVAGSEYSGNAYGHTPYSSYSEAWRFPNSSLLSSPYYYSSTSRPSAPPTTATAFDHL
Sequence of Apoptotic protease-activating factor 1 (O14727 whole entry): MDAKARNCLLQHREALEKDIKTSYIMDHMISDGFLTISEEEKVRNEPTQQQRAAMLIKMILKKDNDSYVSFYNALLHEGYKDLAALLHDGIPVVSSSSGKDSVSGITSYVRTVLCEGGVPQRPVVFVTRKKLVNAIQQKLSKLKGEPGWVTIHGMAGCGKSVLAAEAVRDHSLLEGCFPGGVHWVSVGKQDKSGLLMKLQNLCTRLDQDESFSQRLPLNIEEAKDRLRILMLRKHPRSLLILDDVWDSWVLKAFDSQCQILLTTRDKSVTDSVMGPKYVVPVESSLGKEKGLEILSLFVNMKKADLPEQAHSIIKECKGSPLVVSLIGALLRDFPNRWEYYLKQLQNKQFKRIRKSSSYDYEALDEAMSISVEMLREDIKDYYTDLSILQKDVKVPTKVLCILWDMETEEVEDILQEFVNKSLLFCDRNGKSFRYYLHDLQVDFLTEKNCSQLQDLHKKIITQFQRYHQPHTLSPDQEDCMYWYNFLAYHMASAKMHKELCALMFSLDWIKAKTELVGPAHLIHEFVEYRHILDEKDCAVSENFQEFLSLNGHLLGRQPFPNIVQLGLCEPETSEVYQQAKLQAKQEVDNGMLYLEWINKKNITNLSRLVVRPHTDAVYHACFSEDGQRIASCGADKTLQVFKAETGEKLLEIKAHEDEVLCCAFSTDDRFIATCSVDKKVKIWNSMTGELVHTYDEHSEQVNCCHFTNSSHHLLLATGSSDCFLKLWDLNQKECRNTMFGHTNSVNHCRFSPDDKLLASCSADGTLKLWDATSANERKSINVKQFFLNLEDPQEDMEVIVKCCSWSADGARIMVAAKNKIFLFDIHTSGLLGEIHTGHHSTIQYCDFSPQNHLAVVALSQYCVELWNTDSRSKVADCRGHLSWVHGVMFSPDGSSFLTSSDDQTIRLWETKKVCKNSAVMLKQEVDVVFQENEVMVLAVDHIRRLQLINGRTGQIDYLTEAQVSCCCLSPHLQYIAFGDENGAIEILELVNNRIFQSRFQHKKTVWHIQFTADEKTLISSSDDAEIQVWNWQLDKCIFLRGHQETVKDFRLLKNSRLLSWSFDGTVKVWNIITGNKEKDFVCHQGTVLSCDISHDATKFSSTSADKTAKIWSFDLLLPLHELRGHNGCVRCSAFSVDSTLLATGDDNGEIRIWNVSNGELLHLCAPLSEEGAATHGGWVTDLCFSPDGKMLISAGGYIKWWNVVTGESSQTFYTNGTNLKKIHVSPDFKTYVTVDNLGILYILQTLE

CN(C(=O)OC(C)(C)C)c1ccc(-c2nc3ccccc3s2)cc1
inactive: AC50 [1] > 70 µM | AC50 [6] > 52 µM | IC50 (Protein skinhead-1) > 100 µM | IC50 [10] > 80 µM
active: AC50 [2] < 260 nM | AC50 [3] 46.5 µM | AC50 [4] < 68 nM | IC50 (Jurkat) < 160 nM | AC50 [5] 1.42 µM | AC50 [7] < 68 nM | AC50 (Paired box protein Pax-8) 379 nM | EC50 [8] < 160 nM | AC50 [9] 7.35 µM

CC1(C)N=C(N)N=C(N)N1c1ccc(CCCCc2ccccc2)cc1
active: AC50 [11] 11.2 µM | AC50 [12] 28.9 µM

O=C(NCCN(CCNC(=O)c1nc[nH]c1C(=O)Nc1ccc(Cl)cc1)CCNC(=O)c1nc[nH]c1C(=O)Nc1ccc(Cl)cc1)c1nc[nH]c1C(=O)Nc1ccc(Cl)cc1
active: AC50 (DNA topoisomerase) 6.39 µM | AC50 (INS1) 7.12 µM | AC50 [13] 1.67 µM

Oc1cc(NCCN2CCOCC2)cc2cccnc12
active: IC50 [14] 4.63 µM | IC50 [15] 8.53 µM | AC50 [16] 25.9 µM | AC50 (Caspase-6) 3.39 µM | IC50 [17] 2.68 µM | AC50 (Caspase-7) 3.53 µM | AC50 (Caspase-9) 15.9 µM | AC50 (Caspase-8) 17.6 µM
